Measured values: patent US7160911B2, “Diarylcycloalkyl derivatives, process for their preparation and their use as pharmaceuticals” (Sanofi-Aventis Deutschland GmbH, priority 2003, dated 2007)

Target: T1, human PPARalpha (Homo sapiens, UniProt Q07869)
T1 construct: amino acids S167–Y468; expressed in transfected cells; host or cells: HEK (human embryo kidney) cells, stably transfected with the pcDNA3 construct
T1 sequence (Q07869 167-468): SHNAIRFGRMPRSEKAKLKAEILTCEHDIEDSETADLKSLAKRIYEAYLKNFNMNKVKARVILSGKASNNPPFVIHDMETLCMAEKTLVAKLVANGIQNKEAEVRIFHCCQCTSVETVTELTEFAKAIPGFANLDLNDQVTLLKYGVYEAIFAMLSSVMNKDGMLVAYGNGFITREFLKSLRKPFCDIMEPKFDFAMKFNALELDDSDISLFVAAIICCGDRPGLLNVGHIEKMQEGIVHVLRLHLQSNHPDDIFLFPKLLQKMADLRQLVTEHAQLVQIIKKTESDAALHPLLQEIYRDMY
Experiment: Cellular PPARalpha assay (stably transfected HEK luciferase reporter cell line)
Type: cell-based
Conditions: PPARalpha reporter cell line (HEK, GR-GAL4-humanPPARalpha-LBD)
Procedure: Determination of EC50 Values of PPAR Agonists in the Cellular PPARalpha Assay
The potency of substances which bind to human PPARalpha and activate in an agonistic manner is analyzed using a stably transfected HEK cell line (HEK=human embryo kidney) which is referred to here as PPARalpha reporter cell line. It contains two genetic elements, a luciferase reporter element (pdeltaM-GAL4-Luc-Zeo) and a PPARalpha fusion protein (GR-GAL4-humanPPARalpha-LBD) which mediates expression of the luciferase reporter element depending on a PPARalpha ligand. The stably and constitutively expressed fusion protein GR-GAL4-humanPPARalpha-LBD binds in the cell nucleus of the PPARalpha reporter cell line via the GAL4 protein portion to the GAL4 DNA binding motifs 5′-upstream of the luciferase reporter element which is integrated in the genome of the cell line.
There is only little expression of the luciferase reporter gene without addition of a PPARalpha ligand if fatty acid-depleted fetal calf serum (cs-FCS) is used in the assay. PPARalpha ligands bind and activate the PPARalpha fusion protein and thereby bring about expression of the luciferase reporter gene. The luciferase which is formed can be detected by means of chemiluminescence via an appropriate substrate.
The PPARalpha reporter cell line was prepared in 2 stages. Firstly, the luciferase reporter element was constructed and stably transfected into HEK cells. For this purpose, five binding sites of the yeast transcription factor GAL4 (each 5′-CGGAGTACTGTCCTCCGAG-3′) (SEQ ID No. 1) were cloned in 5′-upstream of a 68 bp-long minimal MMTV promoter (Genbank Accession # V01175). The minimal MMTV promoter section contains a […] and a TATA element in order to enable efficient transcription by RNA polymerase II. The cloning and sequencing of the GAL4-MMTV construct took place in analogy to the description of Sambrook J. et. al. (Molecular cloning, Cold Spring Harbor Laboratory Press, 1989). Then the complete Photinus pyralis gene (Genbank Accession # M15077) was cloned in 3′-downstream of the GAL4-MMTV element. After sequencing, the luceriferase reporter element consisting of five GAL4 binding sites, MMTV promoter and luciferase gene was recloned into a plasmid which confers zeocin resistance in order to obtain the plasmid pdeltaM-GAL4-Luc-Zeo. This vector was transfected into HEK cells in accordance with the statements in Ausubel, F. M. et al. (Current protocols in molecular biology, Vol. 1–3, John Wiley & Sons, Inc., 1995).
In a second step, the PPARalpha fusion protein (GR-GAL4-humanPPARalpha-LBD) was introduced into the stable cell clone described. For this purpose, initially the cDNA coding for the N-terminal 76 amino acids of the glucocorticoid receptor (Genbank Accession # P04150) was linked to the cDNA section coding for amino acids 1–147 of the yeast transcription factor GAL4 (Genbank Accession # P04386). The cDNA of the ligand-binding domain of the human PPARalpha receptor (amino acids S167–Y468; Genbank Accession # S74349) was cloned in at the 3′-end of this GR-GAL4 construct. The fusion construct prepared in this way (GR-GAL4-humanPPARalpha-LBD) was recloned into the plasmid pcDNA3 (from Invitrogen) in order to enable constitutive expression therein by the cytomegalovirus promoter. This plasmid was linearized with a restriction endonuclease and stably transfected into the previously described cell clone containing the luciferase reporter element. The finished PPARalpha reporter cell line which contains a luciferase reporter element and constitutively expresses the PPARalpha fusion protein (GR-GAL4-human PPARalpha-LBD) was isolated by selection with zeocin (0.5 mg/ml) and G418 (0.5 mg/ml).
The activity of PPARalpha agonists is determined in a 3-day assay which is described below: […]

EC50 [nM] | Compound
0.2 | Cc1cccc(CO[C@@H]2CCC[C@H](OCc3nc(-c4ccc5ccccc5c4)oc3C)C2)c1C(=O)O [Example 1, 2-methyl-6-[(1R,3S)3-(5-methyl-2-naphthalen-2-yloxazol-4-yl-methoxy)cyclohexyloxymethyl]benzoic acid]
27 | Cc1ccc(-c2nc(CO[C@H]3CCC[C@@H](OCc4cccc(C)c4C(=O)O)C3)c(-c3ccccc3)o2)cc1 [Example 11, 2-methyl-6-[(1R,3S)-3-(5-phenyl-2-p-tolyloxazol-4-ylmethoxy)cyclohexyloxy-methyl]benzoic acid]
0.2 | Cc1cccc(CO[C@@H]2CCC[C@H](OCc3nc(-c4ccc5c(c4)OCCO5)oc3C)C2)c1C(=O)O [Example 3]
34 | COc1cccc(-c2nc(CO[C@H]3CCC[C@@H](OCc4cccc(C)c4C(=O)O)C3)c(-c3ccccc3)o2)c1 [Example 12, 2-{(1R,3S)-3-[2-(3-methoxyphenyl)-5-phenyloxazol-4-ylmethoxy]cyclohexyloxy-methyl}-6-methylbenzoic acid]

Further lines, the compound ahead of its results:

Compound | EC50 [nM]
Cc1cccc(CO[C@@H]2CCC[C@H](OCc3coc(C4CCCCC4)n3)C2)c1C(=O)O [Example 13, 2-[(1R,3S)-3-(2-cyclohexyloxazol-4-ylmethoxy)cyclohexyloxymethyl]-6-methylbenzoic acid] | 0.06
COCCOc1cc(-c2nc(CO[C@H]3CCC[C@@H](OCc4cccc(C)c4C(=O)O)C3)c(C)o2)cc(C(F)(F)F)c1 [Example 10] | 0.3
Cc1ccc(-c2nc(CO[C@H]3CCC[C@@H](OCc4cccc(C)c4C(=O)O)C3)c(C)o2)o1 [Example 4, 2-methyl-6-{(1R,3S)-3-[5-methyl-2-(5-methylfuran-2-yl)oxazol-4-ylmethoxy]cyclohexyloxy-methyl}benzoic acid] | 0.6
